Test results published in patent publication US10858684B2, “Mutant microorganisms resistant to lactose killing” (Inbiose N.V., priority 2014, dated 2020).
Like-named read-outs stand apart in the source and are kept apart here.

Test system: E. coli lactose permease expression cassette mutant strains
Test: Chloramphenicol resistance / MIC of strains with lactose permease translationally coupled to chloramphenicol resistance gene
Assay type: cell-based, Escherichia coli
Settings: for MIC: Escherichia coli
Text: Two strains were constructed in which lactose permease was knockout out from the genome. In both strains a pSC101 plasmid containing a kanamycin resistance gene was transformed, with the difference that one of the plasmids contained a constitutively expressed lactose permease as described in Example 1 and 2, resulting in a reference strain MG1655ΔlacY pSC101_kan and the lacY_cat translational coupled strain MG1655ΔlacY pSC101_kan_lacYsynthetic_cat as described in Example 4 and FIG. 5. Both strains were grown in a minimal medium as described above at different chloramphenicol concentrations (between 0 and 30 mg/l).
This method is however limited by the expression of the beta galactosidase gene which becomes the rate limiting step for growth. Therefore, the expression of the lactose permease gene was measured via the above described translational coupling system described above. The minimal inhibition concentration (MIC) for chloramphenicol is indicative for the expression of the lactose permease gene and this was determined for each of the cassettes. The lowest MIC that still resulted into the same growth rate compared to the wild type was used as an indicator for the expression of the wild type lactose permease expression.

O=C(N[C@H](CO)[C@H](O)c1ccc([N+](=O)[O-])cc1)C(Cl)Cl [chloramphenicol]
MIC (read-out: minimal inhibition concentration (MIC), cassettes with the lowest MIC that have the same growth rate as the wild type strain): ~20 mg/L
MIC (read-out: minimal inhibition concentration (MIC), mutant strains with a slightly lower growth rate): 15 to 20 mg/L
MIC (read-out: minimal inhibition concentration (MIC), mutant strains with equal or higher growth rate): 20 to 80 mg/L
growth inhibition of reference strain MG1655ΔlacY pSC101_kan versus lacY_cat coupled strain (chloramphenicol 0 to 30 mg/l, minimal medium, 48 and 92 hours): inhibited at a lower chloramphenicol concentration than the mutant lacY_cat translational coupled strain
